In patent US11266707B2, “Nutraceuticals for the prevention, inhibition, and treatment of SARS-CoV-2 and associated COVID-19” (priority 2020, dated 2022):
Where two headings read alike, the source gives them in different places.

Key:
[1] = system: primary peritoneal macrophages; conditions: cited from earlier work
[2] = system: LPS-challenged macrophages; conditions: pre-incubated 6 h with 0 to 50 μM, then LPS 24 h; cited from earlier work
LPS-induced ARDS [3] = conditions: cited from earlier work
[4] = system: lipopolysaccharide-induced inflammatory reactions; conditions: cited from earlier work
[5] = system: sepsis induction with live Escherichia coli; conditions: cited from earlier work; for concentration of IL-1a: controls 1187.0±278.64, P<0.05
[6] = system: lipopolysaccharide-activated macrophages; conditions: cited from earlier work
macrophage foam cells = conditions: pretreatment; cited from earlier work
[7] = 10 mg/kg intravenously then 10 mg/kg/h infusion; cited from earlier work
[8] = cited from earlier work
[9] = 10 mg/kg intraperitoneally at 1 and 6 h after CL2P and every 12 h; 18 h; cited from earlier work
[10] = 10 mg/kg intraperitoneally; 72 h after CL2P; cited from earlier work
[11] = cited from earlier work; remark: listed apart in the source
LPS-induced ARDS [12] = conditions: cited from earlier work; remark: listed apart in the source
NK cell = assay: Pterostilbene given as nanostilbene to cancer patients: NK cell activity and interferon gamma; type: in vivo, human; conditions: administered in the form of nanostilbene in cancer patients
[13] = animal studies; cited from earlier work
[14] = system: interleukin-I, interleukin-6, interleukin-8, TNF-alpha; conditions: cited from earlier work
[15] = system: human umbilical vein VECs (HUVECs); conditions: cited from earlier work
[16] = system: endothelium of atherosclerotic plaque; conditions: apoE(−/−) mice, injection; cited from earlier work
[17] = 50 mg/kg, LPS 5 mg/kg 3 days later
[18] = lung, serum, and bronchoalveolar lavage fluid

## C[S+]([O-])CCCCN=C=S (stereo not shown) [sulforaphane, 1-isothiocyanato-4-(methylsulfinyl)-butane]
[1]; LPS-stimulated Nrf2 (+/+) primary peritoneal macrophages
  HO-1 expression: significantly augmented
[1]; Nrf2 (+/+) primary peritoneal macrophages, pretreatment
  LPS-stimulated mRNA expression, protein expression and production of TNF-alpha, IL-1beta, COX-2 and iNOS: potently inhibited
[1]; Nrf2 (−/−) primary peritoneal macrophages
  anti-inflammatory effect: attenuated
[2]
  expression of NO and cytokines: able to prevent
LPS-induced ARDS [3]; 50 mg/kg, ELISA
  serum levels of interleukin-6 (IL-6): significantly decreased
  serum levels of tumor necrosis factor-a (TNF-a): significantly decreased
LPS-induced ARDS [3]; [17]
  lactate dehydrogenase (LDH) activity: significantly decreased
  wet-to-dry ratio of the lungs: significantly decreased
LPS-induced ARDS [3]; 50 mg/kg
  inducible nitric oxide synthase (iNOS) activity: significantly inhibited
  prostaglandin E2 (PGE2) production: significantly inhibited
LPS-induced ARDS [3]; pre-treatment
  Nrf2/antioxidant response element (ARE) pathway: activated
LPS-induced ARDS [3]; western blot
  cyclooxygenase-2 (COX-2) protein expression: significantly inhibited
  matrix metalloproteinase-9 (MMP-9) protein expression: significantly inhibited

## CC1=CC(=O)C(C(C)C)=CC1=O [thymoquinone]
[4]
  lipopolysaccharide-induced inflammatory reactions: suppressed effectively
[4]; marker of inflammation
  concentration of nitric oxide: reduced significantly
[5]; 0.75 mg/kg dose
  concentration of IL-1a: 310.8 ± 70.93 pg/mL
[5]; 0.75 mg/kg, controls 5505.2±333.96, P<0.01
  IL-10 levels: 2885.0 ± 553.98 pg/mL
[5]; 1 mg/kg group
  concentration of IL-1a: 428.3 ± 71.32 pg/mL
[5]; P value 0.0851
  levels of IL-2: relatively lower
[5]; P value 0.1817
  levels of TNF-a: relatively lower
[5]; mice, sepsis models
  reduced mortality: 80-90%
  renal and hepatic biomarker profiles: improved

## Epigallocatechin-3-Gallate [EGCG]
[6]; cells cotreated with EGCG and LPS
  NO production: Inhibition
[6]
  disappearance of inhibitor kappaB from cytosolic fraction: blocked
[6]; electrophoretic mobility shift assay
  activation of nuclear factor-kappaB: blocked
Macrophage foam cells
  TNF-a-induced downregulation of ABCA1 and decrease in cholesterol efflux to apoA1: attenuated
[7]
  myeloperoxidase activity: reduced
  myocardial damage: reduced
  plasma IL-6 levels: decreased
  plasma creatine phosphokinase levels: decreased
[8]; 50 and 100 mg/kg/day
  colonic tissue erosion: attenuation
[8]; mouse, in vivo
  HIF-1a and STAT3 protein expression in the colon: decreasing
  plasma levels of IL-10: increasing
  plasma levels of TGF-1: increasing
[8]; plasma
  release of IL-6: reduce
  release of IL-17: reduce
[9]
  hypotension (mean arterial blood pressure): significantly improved
[10]
  survival: significantly improved
[11]; first dose given 24 hours after cecal ligation and puncture
  lethal sepsis: rescued
[11]; intraperitoneal administration
  lethal endotoxemia: protected
[11]; mouse, in vivo
  systemic accumulation of HMGB1, IL-6 and KC: attenuation
LPS-induced ARDS [12]; 10 mg/kg ip 1 h before LPS 10 mg/kg ip
  LPS-induced ARDS: attenuated
LPS-induced ARDS [12]; 10 mg/kg ip
  changes in blood gases: decreased
  histological lesions: reduced
  myeloperoxidase (MPO) activity: reduced
LPS-induced ARDS [12]; lung tissue
  expression of IKB-a: increased
  expression of TLR-4, MyD88, TRIP, and p-p65: alleviated
  expression of p65: no influence
LPS-induced ARDS [12]; [18]
  expression of IL-6: significantly decreased
  expression of interleukin (IL)-1′: significantly decreased
  expression of tumor necrosis factor (TNF)-a: significantly decreased

## trans-3,5-dimethoxy-4-hydroxystilbene [pterostilbene]
NK cell
  NK cell activity: increased
  interferon gamma production: increased
[13]
  bioavailability: 80%
[14]
  inflammatory cytokines associated with ARDS (interleukin-I, interleukin-6, interleukin-8, TNF-alpha): inhibit inflammatory cytokines
[15]; HUVECs, oxLDL 200 μg/ml
  oxLDL-induced cell shrinkage, chromatin condensation, nuclear fragmentation, and cell apoptosis: protected against such injuries
[15]; in vitro and in vivo
  expression of lectin-like oxLDL receptor-I (LOX-1): inhibited
[16]
  number of TUNEL-positive cells in the endothelium of atherosclerotic plaque: strongly decreased
